Results taken from patent US20140005163A1 (NOVARTIS AG, priority 2010, published 2014).

Key:
[1] = system: PKB Ser473 phosphorylation in Rat1-myr-HA-p110 alpha cells; experiment: Reverse protein array assay, PKB Ser473 phosphorylation in Rat1-myr-p110 alpha cells; format: cell-based; details: 0.5 h, pAkt Ser473, 30 minutes compound incubation, read-out: p-PKB IC50
Procedure, shortened: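 After at least 20 h of culture, the p110 isoform-transfected Rat1 lines receive compound in an 8-step dilution series, keeping DMSO at 0.2%, for 30 minutes. Cells are then lysed and lysates arrayed on chips for fluorescence detection of Ser473-phosphorylated PKB.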

mTOR = biological target: T1, mTOR (Homo sapiens, UniProt P42345); experiment: Biochemical assay for m-TOR by TR-FRET; details: 8 μM ATP, 400 nM GFP-4EBP1, 0.5 nM mTOR
T1 construct: purchased Invitrogen Corporation (Carlsbad/CA, USA) PV4753
T1 sequence (P42345 1360-2549 limits assumed): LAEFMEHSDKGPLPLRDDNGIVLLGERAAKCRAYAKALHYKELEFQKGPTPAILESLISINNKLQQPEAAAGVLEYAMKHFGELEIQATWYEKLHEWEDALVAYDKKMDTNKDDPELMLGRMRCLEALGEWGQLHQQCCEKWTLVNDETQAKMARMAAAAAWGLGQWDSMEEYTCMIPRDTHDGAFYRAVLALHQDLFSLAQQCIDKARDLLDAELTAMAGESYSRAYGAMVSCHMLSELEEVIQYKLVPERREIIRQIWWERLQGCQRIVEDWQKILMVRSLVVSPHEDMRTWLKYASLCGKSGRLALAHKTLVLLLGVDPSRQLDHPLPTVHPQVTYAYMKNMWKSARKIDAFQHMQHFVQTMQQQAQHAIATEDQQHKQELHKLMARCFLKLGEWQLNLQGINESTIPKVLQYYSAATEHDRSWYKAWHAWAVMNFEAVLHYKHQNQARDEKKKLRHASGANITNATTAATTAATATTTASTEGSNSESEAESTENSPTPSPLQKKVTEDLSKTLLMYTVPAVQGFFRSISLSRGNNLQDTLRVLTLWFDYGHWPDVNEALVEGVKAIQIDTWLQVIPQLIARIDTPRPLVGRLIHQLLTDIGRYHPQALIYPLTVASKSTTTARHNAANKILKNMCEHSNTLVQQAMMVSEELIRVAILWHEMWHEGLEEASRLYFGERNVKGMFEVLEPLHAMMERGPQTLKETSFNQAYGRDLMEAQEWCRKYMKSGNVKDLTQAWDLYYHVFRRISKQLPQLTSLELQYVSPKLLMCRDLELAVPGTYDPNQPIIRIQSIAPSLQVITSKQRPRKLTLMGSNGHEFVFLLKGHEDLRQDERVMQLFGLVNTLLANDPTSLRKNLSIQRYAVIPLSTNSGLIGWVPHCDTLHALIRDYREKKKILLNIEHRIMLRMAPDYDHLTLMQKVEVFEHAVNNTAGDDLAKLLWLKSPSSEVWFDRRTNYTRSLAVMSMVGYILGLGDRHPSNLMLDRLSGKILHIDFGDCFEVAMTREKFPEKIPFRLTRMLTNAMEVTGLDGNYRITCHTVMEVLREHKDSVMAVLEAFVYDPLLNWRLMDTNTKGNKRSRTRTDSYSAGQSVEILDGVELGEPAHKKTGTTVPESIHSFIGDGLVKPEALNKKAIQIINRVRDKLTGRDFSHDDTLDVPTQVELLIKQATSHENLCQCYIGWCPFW
Procedure, shortened: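 TR-FRET read-out: Tb-labelled anti-p4EBP1 pThr46 antibody (0.5 nM), added in EDTA to stop the reaction, detects phosphorylated GFP-4EBP1 after 15 min. Kinase step used 0.5 nM mTOR, 400 nM substrate, 8 μM ATP, MnCl2-containing HEPES buffer pH 7.5, room temperature.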

PI3K delta = biological target: T2, PI3K delta (Homo sapiens, UniProt O00329); experiment: PI3K delta kinase assay (Kinase-Glo luminescence); format: biochemical
T2 construct: for the full-length p110-d subunit are generated and fused by overlapping PCR; p85(iSH2) fusion partner (see partner chain) (N); His tag (C); made in house; host or cells: baculovirus; Tn5 (Trichoplusia ni) or TiniPro insect cells
T2 sequence (O00329 with tags, fused parts or gaps limits assumed): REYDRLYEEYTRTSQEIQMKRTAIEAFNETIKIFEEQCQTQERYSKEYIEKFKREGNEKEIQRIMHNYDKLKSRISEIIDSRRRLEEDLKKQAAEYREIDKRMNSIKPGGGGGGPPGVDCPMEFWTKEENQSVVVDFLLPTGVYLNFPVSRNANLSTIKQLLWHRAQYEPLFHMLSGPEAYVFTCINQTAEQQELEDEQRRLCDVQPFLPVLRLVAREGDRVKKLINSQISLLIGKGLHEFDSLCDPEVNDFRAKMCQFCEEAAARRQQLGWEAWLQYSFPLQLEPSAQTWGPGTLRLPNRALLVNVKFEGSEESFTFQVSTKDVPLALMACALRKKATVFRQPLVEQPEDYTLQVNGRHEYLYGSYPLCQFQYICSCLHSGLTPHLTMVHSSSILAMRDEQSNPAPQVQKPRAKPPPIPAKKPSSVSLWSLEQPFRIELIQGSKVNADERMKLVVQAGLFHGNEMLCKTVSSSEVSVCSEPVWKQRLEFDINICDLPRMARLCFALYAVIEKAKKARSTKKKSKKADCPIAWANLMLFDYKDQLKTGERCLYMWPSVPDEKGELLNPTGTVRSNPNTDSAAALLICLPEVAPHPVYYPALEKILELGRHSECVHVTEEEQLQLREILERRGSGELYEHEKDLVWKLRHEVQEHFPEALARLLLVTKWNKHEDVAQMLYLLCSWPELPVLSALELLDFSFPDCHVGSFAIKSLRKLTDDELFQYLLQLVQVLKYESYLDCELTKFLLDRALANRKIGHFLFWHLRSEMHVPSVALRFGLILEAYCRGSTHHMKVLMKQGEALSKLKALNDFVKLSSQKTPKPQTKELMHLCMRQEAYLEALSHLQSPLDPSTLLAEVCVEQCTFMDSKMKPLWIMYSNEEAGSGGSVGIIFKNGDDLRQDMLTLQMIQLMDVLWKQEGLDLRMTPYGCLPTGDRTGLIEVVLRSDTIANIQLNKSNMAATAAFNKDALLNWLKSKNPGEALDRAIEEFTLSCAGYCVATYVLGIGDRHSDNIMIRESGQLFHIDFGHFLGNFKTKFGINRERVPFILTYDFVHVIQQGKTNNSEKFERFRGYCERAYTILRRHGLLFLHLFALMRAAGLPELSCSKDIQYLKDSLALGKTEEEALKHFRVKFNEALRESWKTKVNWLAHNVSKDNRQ
Procedure, shortened: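 ATP depletion was measured by Kinase-Glo luminescence after a 60-minute room-temperature reaction containing 1 μM ATP, 10 μg/mL PI and 10 nM His-tagged p85(iSH2)-linker-p110δ (BV-1060). Buffer: Tris pH 7.5, 3 mM MgCl2, 50 mM NaCl, 0.05% CHAPS, 1 mM DTT. IC50 values came from four-parameter fits over eight concentrations.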

Row | IC50 [1] [nM] | IC50 (mTOR) [nM] | IC50 (PI3K delta) [nM] | Structure (SMILES)
1 | 68 | 543 | 98 | Cc1nn(C)c(C)c1-n1c(=O)n(C)c2cnc3ccc(-c4ccc(N(C)C)nc4)cc3c21 [Example 4.3, 8-(6-Dimethylamino-pyridin-3-yl)-3-methyl-1-(1,3,5-trimethyl-1H-pyrazol-4-yl)-1,3-dihydro-imidazo[4,5-c]quinolin-2-one]
2 | 88 | 22 | 11 | CCNc1cc(-c2ccc3ncc4c(c3c2)n(-c2c(C)nn(C)c2C)c(=O)n4C)cnc1CO [Example 155.4, 8-(5-Ethylamino-6-hydroxymethyl-pyridin-3-yl)-3-methyl-1-(1,3,5-trimethyl-1H-pyrazol-4-yl)-1,3-dihydro-imidazo[4,5-c]quinolin-2-one]
3 | 192 | 677 | 120 | Cc1cc(-n2c(=O)n(C)c3cnc4ccc(-c5ccc(C(F)(F)F)nc5)cc4c32)n(C)n1 [Example 8.2, 1-(2,5-Dimethyl-2H-pyrazol-3-yl)-3-methyl-8-(6-trifluoromethyl-pyridin-3-yl)-1,3-dihydro-imidazo[4,5-c]quinolin-2-one]
4 | < 5 | 5 | 10 | CCNc1cc(-c2ccc3ncc4c(c3c2)n(-c2cn(C(C)C)nc2C)c(=O)n4C)cnc1CO [Example 155.3, 8-(5-Ethylamino-6-hydroxymethyl-pyridin-3-yl)-1-(1-isopropyl-3-methyl-1H-pyrazol-4-yl)-3-methyl-1,3-dihydro-imidazo[4,5-c]quinolin-2-one]
5 | 45 | 58 | 10 | CCNC(=O)c1cc(-c2ccc3ncc4c(c3c2)n(-c2cn(C)nc2C)c(=O)n4C)cnc1NC [Example 242.1, 5-[1-(1,3-Dimethyl-1H-pyrazol-4-yl)-3-methyl-2-oxo-2,3-dihydro-1H-imidazo[4,5-c]quinolin-8-yl]-N-ethyl-2-methylamino-nicotinamide]
6 | < 5 | 3 | 10 | CCc1ncc(-c2ccc3ncc4c(c3c2)n(-c2cn(C)nc2C)c(=O)n4C)cc1NC(C)C [Example 162, 1-(1,3-Dimethyl-1H-pyrazol-4-yl)-8-(6-ethyl-5-isopropylamino-pyridin-3-yl)-3-methyl-1,3-dihydro-imidazo[4,5-c]quinolin-2-one]
7 | < 5 | 8 | 4 | Cc1ncc(-c2ccc3ncc4c(c3c2)n(-c2cn(C)nc2Cl)c(=O)n4C)cc1N [Example 88.1, 8-(5-Amino-6-methyl-pyridin-3-yl)-1-(3-chloro-1-methyl-1H-pyrazol-4-yl)-3-methyl-1,3-dihydro-imidazo[4,5-c]quinolin-2-one]
8 | 8 | 11 | 9 | CCOc1cc(-c2ccc3ncc4c(c3c2)n(-c2cn(CCO)nc2C)c(=O)n4C)cnc1C [Example 211.2, 8-(5-Ethoxy-6-methyl-pyridin-3-yl)-1-[1-(2-hydroxy-ethyl)-3-methyl-1H-pyrazol-4-yl]-3-methyl-1,3-dihydro-imidazo[4,5-c]quinolin-2-one]
9 | 32 | 105 | 170 | CCn1c(=O)n(-c2cn(C)nc2C)c2c3nc(-c4ccc(OC)c(OC)c4)ccc3ncc21 [Example 251, 8-(3,4-Dimethoxy-phenyl)-1-(1,3-dimethyl-1H-pyrazol-4-yl)-3-ethyl-1,3-dihydro-1,3,5,9-tetraaza-cyclopenta[a]naphthalen-2-one]
